Measured values as given in PMC6274122, “Antibacterial Activity and Cytotoxicity of Silver(I) Complexes of Pyridine and (Benz)Imidazole Derivatives. X-ray Crystal Structure of [Ag(2,6-di(CH2OH)py)2]NO3” (Molecules, 2016).
pIC50: −log10 of the molar value. Read-outs that look alike come from different tables or passages of the source.

Tests used:
[1] = Broth microdilution MIC of free ligands, strain not specified; type: cell-based; settings: Proteus hauseri, ATCC 13315 / ATCC 15442 / ATCC 25922; free ligands tested up to 500 mg/L
Procedure: (§1) The antimicrobial susceptibility testing of synthesized complexes, free ligands, and references compounds (AgNO3 and AgSD) was performed against three Gram-negative strains: Eschericha coli ATCC 25922, Proteus hauseri ATCC 13315, and Pseudomanos aeruginosa ATCC 15442. The minimum inhibitory concentration (MIC) and minimum bactericidal concentration (MBC) were determined by a modified broth microdilution method according to the recommendation of Clinical and Laboratory Standards Institute (CLSI M07-A8). In the experiments the Mueller-Hinton broth was used, the final organism density was about 5 × 10^5 CFU/mL and the tests were performed 20 h at 37 °C. The studied compounds were dissolved in water (1, 3, 4, 6, and the ligands [except 2-CH2OHbim]) or in DMSO (2, 5, and 2-CH2OHbim), and the appropriate amounts were added to samples (to biotic controls was added pure solvent). The compounds were tested in concentration ranging from 0 mg/L to 100 mg/L, except free ligands which were tested up to 500 mg/L.

[2] = tested on: Pseudomonas aeruginosa ATCC 15442; test: Broth microdilution MIC/MBC (CLSI M07-A8), P. aeruginosa; type: cell-based; settings: for MBC (minimum bactericidal concentration): P. aeruginosa ATCC 15442; for MIC (minimum inhibitory concentration): Mueller-Hinton broth, 20 h at 37 °C, triplicate (SD = 0)
Procedure: as §1

[3] = tested on: Proteus hauseri ATCC 13315; test: Broth microdilution MIC/MBC (CLSI M07-A8), P. hauseri; type: cell-based; settings: for MBC (minimum bactericidal concentration): P. hauseri ATCC 13315; for MIC (minimum inhibitory concentration): P. hauseri, Mueller-Hinton broth, 20 h at 37 °C, triplicate (SD = 0)
Procedure: as §1

E. coli ATCC 8739 = tested on: E. coli ATCC 8739; design: method as in PMID 24218046; settings: cited from earlier work
[4] = tested on: Escherichia coli ATCC 25922; test: Broth microdilution MIC/MBC (CLSI M07-A8), E. coli; type: cell-based; settings: for MBC (minimum bactericidal concentration): E. coli ATCC 25992; for MIC (minimum inhibitory concentration): Mueller-Hinton broth, 20 h at 37 °C, triplicate (SD = 0)
Procedure: as §1

P. aeruginosa ATCC 27853 = tested on: P. aeruginosa ATCC 27853; design: method as in PMID 24218046; settings: cited from earlier work
[5] = tested on: Escherichia coli ATCC 25922; design: method as in PMID 25846722; settings: cited from earlier work
[6] = tested on: Proteus hauseri ATCC 13315; design: method as in PMID 25846722; settings: cited from earlier work
[7] = tested on: Pseudomonas aeruginosa ATCC 15442; design: method as in PMID 25846722; settings: cited from earlier work
[8] = tested on: B16 (murine melanoma) cells; test: MTT cytotoxicity assay, B16 cells; type: cell-based; settings: 72 h incubation, three independent experiments, read-out: IC50 (concentration causing 50% reduction of cellular viability)
Procedure: The B16 (murine melanoma) cells and C3H10T1/2 (mouse fibroblast) cells were seeded 7 × 10^3 (B16) and 3 × 10^4 (10T1/2) per well/24 well plate into a medium containing DMEM GlutaMAX (Thermo Fisher Scientific, Waltham, MA USA), 10% bovine serum (Lonza, San Diego, CA, USA) added, and Antibiotic Antimicotic Solution 1:100 (Sigma-Aldrich). The plates were stored in a humidified incubator at 37 °C, 5% CO2. After 24 h, the cells were treated with the following compounds: compounds 1–6, free ligands, AgNO3, and AgSD (except control cells—wells without tested compound). Silver complexes 1, 3, 4, 6, and AgNO3 were dissolved in water. Complexes 2, 5, and AgSD are DMSO-soluble. Next, all chemicals were diluted into water to make a concentration 1, 0.1, 0.01 mg/mL and as a working solution were added to the medium. After 72 h of incubation, the cells were washed and incubated with 0.25 mg/mL MTT (Sigma-Aldrich) solution and were incubated for another 3 h. Isopropanol was added to dissolve the formazan crystals. Absorbance at 540 and 690 nm was read using Epoch Software version 2.01.14 (Bio-Tek, Winooski, VT, USA).

[9] = tested on: three Gram-negative strains: Eschericha coli ATCC 25922, Proteus hauseri ATCC 13315, and Pseudomanos aeruginosa ATCC 15442; test: Broth microdilution MIC of free ligands, strain not specified; type: cell-based; settings: free ligands tested up to 500 mg/L
Procedure: as §1

B16 cells = tested on: B16 cells; design: method as in doi:10.1039/a702757e; settings: cited from earlier work

Row | Compound | MBC (minimum bactericidal concentration) [2] [µM] | MIC (minimum inhibitory concentration) ([2]; P. aeruginosa) [µM] | MBC (minimum bactericidal concentration) [3] [µM] | MIC (minimum inhibitory concentration) [3] [µM] | MBC (minimum bactericidal concentration) [4] [µM] | MIC (minimum inhibitory concentration) ([4]; E. coli) [µM] | also measured
1 | OCc1ccncc1 [Complex 4-CH2OHpy] | – | – | – | – | – | – | MIC [1]: > 500 µg/mL
2 | CCOP(=O)(OCC)OCc1nc2ccccc2[nH]1.CCOP(=O)(OCC)OCc1nc2ccccc2[nH]1.O=[N+]([O-])O.[Ag] [Complex 2, [Ag(2-bimOpe)2]NO3] | 27 | 14 | 41 | 27 | 54 | 27 | MIC (E. coli ATCC 8739): 21.2 µM; MIC (P. aeruginosa ATCC 27853): 5.3 µM
3 | Cc1ncc([N+](=O)[O-])n1CCO.Cc1ncc([N+](=O)[O-])n1CCO.O=[N+]([O-])[O-].[Ag+] [Complex 6, [Ag(MTZ)2NO3]] | – | – | – | – | – | – | MBC (minimum bactericidal concentration) ([5]; E. coli ATCC 25992): 98 µM; MIC (minimum inhibitory concentration) ([5]; E. coli): 98 µM; MBC (minimum bactericidal concentration) ([6]; P. hauseri ATCC 13315): 117 µM; MIC (minimum inhibitory concentration) ([6]; P. hauseri): 98 µM; MBC (minimum bactericidal concentration) ([7]; P. aeruginosa ATCC 15442): 117 µM; MIC (minimum inhibitory concentration) ([7]; P. aeruginosa): 59 µM
4 | O=[N+]([O-])[O-].OCc1cccc(CO)n1.OCc1cccc(CO)n1.[Ag+] [Complex 3, [Ag(2,6-di(CH2OH)py)2]NO3] | 67 | 45 | 112 | 67 | 67 | 67 | –
5 | OCc1cccc(CO)n1 [2,6-di(CH2OH)py, 2,6-di(hydroxymethyl)-pyridine] | – | – | – | – | – | – | MIC [1]: > 500 µg/mL
6 | O=[N+]([O-])[O-].[Ag+] [AgNO3, silver nitrate, reference compound] | 59 | 59 | 177 | 118 | 177 | 118 | pIC50 [8]: 5.01
7 | CCOP(=O)(OCC)OCc1ccncc1 [Complex 4-pmOpe] | – | – | – | – | – | – | MIC values of the free ligands [9]: > 500 mg/L^−1
8 | CCOP(=O)(OCC)OCc1nc2ccccc2[nH]1 [Complex 2-bimOpe] | – | – | – | – | – | – | MIC values of the free ligands [9]: > 500 mg/L^−1
9 | O=[N+]([O-])[O-].OCc1nc2ccccc2[nH]1.OCc1nc2ccccc2[nH]1.[Ag+] [Complex 5, [Ag(2-CH2OHbim)2]NO3] | 21 | 21 | 43 | 21 | 21 | 21 | growth-inhibiting concentration, fold lower than that of AgSD ([2]; P. aeruginosa, MIC relative to AgSD): 2.6 fold; growth-inhibiting concentration, fold lower than that of AgSD ([4]; E. coli, MIC relative to AgSD): 2.6 fold
10 | O=[N+]([O-])[O-].OCc1ccncc1.OCc1ccncc1.[Ag+] [Complex 4, [Ag(4-CH2OHpy)2]NO3] | 52 | 26 | 77 | 52 | 77 | 52 | –
11 | N.N.[Cl][Pt][Cl] [cis-DDP, cisplatin] | – | – | – | – | – | – | pIC50 [8]: 5.10; pIC50 (B16 cells): 6.05
12 | {[Ag(4-pmOpe)]NO3}n [Complex 1] | 72 | 48 | 120 | 72 | 145 | 96 | pIC50 [8]: 4.89; MIC (E. coli ATCC 8739): 37.6 µM; MIC (P. aeruginosa ATCC 27853): 37.6 µM
